Test results: US20210386813A1, “COMPOSITION FOR TREATING OVERWEIGHT AND/OR OBESITY” (NEXIRA, priority 2018, published 2021)
Marks after values point to notes of the source that are not given here.

How the values were obtained:
[1] = test system: differentiated preadipocytes; experiment: Adipose tissue energy metabolism study, ATP production (Mitochondrial ToxGlo); type: cell-based, human; conditions: differentiated cells; rotenone 400 nM, 2 hours
Method: In order to study the energy metabolism, the ATP production is measured in the differentiated preadipocytes. This provides information on the presence of mitochondria and their activity. Here, the Mitochondrial ToxGlo® test available from Promega under the reference G8000 is used.
The test includes placing preadipocytes in contact with an ATP detection reagent. […] The ATP detection reagent comprises luciferin, ATPase inhibitors and Ultra-Glo® thermostable luciferase. The values are normalized with a DAPI quantification. The Normalization is carried out exclusively in relation to the basolateral medium.
Preadipocytes coming from humans are used for the energy metabolism study. The three donors are those of the cytotoxicity study (I) above.
(§1) The preadipocytes are isolated by digestion and centrifugation in accordance with the protocol described for the cytotoxicity study (I) above. The preadipocytes are spread at high density on microtiter plate 96 and cultivated according to the protocol described for the lipid accumulation study (II). The placing in contact with the basolateral medium is performed according to the protocol described for the lipid accumulation study (II).
The quantification of the ATP synthesis is performed on differentiated cells.
The basolateral medium (BM) comprising the bioavailable extracts of the Caco-2 cell system is harvested for the test. […]

UCP1 = experiment: Adipose tissue phenotypic orientation (thermogenesis) study, UCP1 expression by immunofluorescence; type: cell-based; conditions: human preadipocytes; GW9662; relative to differentiated cells
From the text: The Applicant evaluated the effects of a multitude of bioavailable plant extracts, as well as the effects of the combination of these extracts, on the differentiation of preadipocytes or adipocytes into beige adipocytes. More generally the Applicant evaluated the orientation of a white phenotype towards a beige phenotype.
Preadipocytes coming from humans are used for the cellular differentiation study. The three donors are those of the cytotoxicity study (I) above.
as §1
After the culture, the differentiated cells are fixed with a 4% paraformaldehyde solution then colored with an anti-UCP1 fluorescent antibody available from Sigma-Aldrich under the reference U6382. […]
The quantification is based on fluorescence intensity measurements on images. […]
Fluorescence microphotographs are performed to quantify the UCP1 expression. […]

preadipocytes [2] = experiment: Preadipocyte differentiation and lipid accumulation (adipogenesis) study, BODIPY fluorescence; type: cell-based; conditions: human preadipocytes; GW9662 0.1 μM; relative to differentiated cells
Method: In practice, the effects of the bioavailable extracts on the lipid accumulation are studied by measuring the accumulation of lipid droplets in the differentiated preadipocytes, that is to say in the adipocytes. The measurement is optical and is performed by fluorescence.
Preadipocytes coming from humans are used for the lipid accumulation study.
The three adipose tissue donors are adult females undergoing a cosmetic or reconstructive surgery intervention.
The preadipocytes are isolated by digestion and centrifugation in accordance with the protocol described for the cytotoxicity study (I) above. […]
The quantification is based on fluorescence intensity measurements on images. The acquisition and the processing of images includes particularly: • the acquisition of microphotographs with a video microscope using the so-called Apotome technology (7 micrographs per well, 3 wells per processing condition); • the quantification of the lipid accumulation by the treatment and the image analysis of the ImageJ software developed by National Institutes of Health (NIH); • the determination of the number of nuclei by means of a shape detection and shape sorting algorithm based on the nucleus size and the circularity of the nucleus; • the connection between the fluorescence detected and the number of nuclei. […]
Fluorescence microphotographs are performed to quantify the lipid accumulation (Bodipy®). […]

adipocytes = experiment: Lipolysis study of mature adipocytes (glycerol and NEFA release); type: cell-based; conditions: human adipocytes, 2 h at 37° C.; forskolin 1 μM, isoproterenol 0.1 μM; 100 = Base control
Method: The quantification of the production of glycerol is performed by means of the Glycerol Assay Kit test kit available from Randox under the reference GY105.
The quantification of the production of non-esterified fatty acids is performed by the NEFA HR2—RI Set, NEFA HR2—R2 Set and NEFA Standard test kits available from Fujifilm Wako Chemicals Europe under the respective references 434-91795, 436-91995 and 270-77000.
Each of these kits is based on the production of a colored compound. Thus, the respective concentrations of glycerol and non-esterified fatty acids are determined by means of optical absorbance measurements, and the comparison of these measurements with known absorbance ranges for glycerol and non-esterified fatty acid concentrations. The values are normalized by DNA quantification by means of the Quant-iT® PicoGreen® (Invitrogen®) kit available from ThermoFisher Scientific under the reference P7589.
Adipocytes coming from humans are used for the lipolysis study.
The adipocytes are prepared from subcutaneous adipose tissue digested by collagenase followed by a low centrifugation.
The adipocytes are incubated in a Krebs-Ringer bicarbonate (KRB) buffer solution, sometimes containing basolateral medium of caco-2 cells exposed with, either predetermined concentrations of extract(s) (at a rate of one 1:8 dilution each), or with reference products. The incubation time is 2 h at a temperature of 37° C. The cell culture medium is subsequently harvested and frozen at a temperature of −20° C. for use in the glycerol and NEFA tests. The adipocytes are also harvested for the DNA quantification.
Forskolin (1 μM, available from Sigma-Aldrich under the reference F6886) and isoproterenol (0.1 μM, available from Sigma-Aldrich under the reference 16504) are used as lipolysis activators.
The results are expressed in percentages in relation to the results obtained for respective BM media without extracts. The statistical analyses are performed by placing the BM environments comprising the extracts in relation with the respective BM environments without extracts.

preadipocytes [3] = experiment: Cellular viability / mitochondrial activity (MTS formazan, Cell Titer 96 AQueous One); type: cell-based; conditions: human preadipocytes; relative to FBS 1% base control; 0.2% triton
Method: The cytotoxic effects of bioavailable plant extracts and their combinations was evaluated on preadipocytes. Two technical approaches were implemented: • the evaluation of the cellular viability by the measurement of the production of formazan by active (therefore living) cells; and • the analysis of the damage of cell membranes by the measurement of lactate dehydrogenase (LDH) in the cell culture medium.
The evaluation of the cellular viability is performed with the Cell Titer 96® AQueous One Solution Cell Proliferation Assay test kit available from Promega under the reference G3580.
In this test, the compound MTS-tetrazolium (3-(4,5-dimethylthiazol-2-yl)-5-(3-carboxymethoxyphenyl)-2-(4-sulfophenyl)-2H-tetrazolium) is transformed by active (living) cells in a culture medium in colored formazan. The transformation of MTS-tetrazolium is performed by the mitochondria in the cells. Formazan is soluble in the culture medium. The quantity of formazan is directly proportional to the number of living cells and may be measured by spectrophotometry (absorbance).
In practice, the cellular viability test is therefore based on the mitochondrial activity of the cells.
As a result, the viability study may provide precious information for the energy metabolism study (IV). […]
The cellular viability is measured directly in the wells of the microtiter plate. […]

preadipocytes [4] = experiment: Cytotoxicity study of bioavailable plant extracts on human preadipocytes (LDH release, CytoTox 96); type: cell-based; conditions: relative to FBS 1% base control, 0.2% triton
Method: The analysis of the damage of cell membranes is performed with the CytoTox 96® Non-Radioactive Cytotoxicity Assay kit available from Promega under the reference G1780. This test is based on the principle that cells having a damaged cell membrane release […] (LDH) into the culture medium. LDH is measured by supplying in the medium lactate, oxidized nicotinamide adenine dinucleotide (NAD+) and iodonitrotetrazolium purple as substrates in presence of diaphorase. Red formazan is then created. The red formazan is proportional to the LDH released by the cells. The Applicant evaluated the cytotoxic effects of a multitude of bioavailable plant extracts, as well as the cytotoxic effects of the combination of these extracts, on preadipocytes coming from various donors. The cytotoxic effects of bioavailable plant extracts and their combinations was evaluated on preadipocytes. […] An extract is considered as cytotoxic if the LDH level measured is greater than or equal to 20% in relation to the LDH level measured with the control extract. […] The results are expressed in percentages in relation to the control extract; except for the LDH test, for which the results are expressed as percentages of the cell lysis control (average+/− SEM), which represents the positive control for the cytotoxicity (the control is fixed at 100%). […]

## C=C(C)[C@H]1Cc2c(ccc3c2O[C@@H]2COc4cc(OC)c(OC)cc4[C@@H]2C3=O)O1 [Rotenone, rotenone]
[1]
  ATP production % Differentiated: 27.95** % Differentiated

## O=C(Nc1ccccc1)c1cc([N+](=O)[O-])ccc1Cl [GW9662]
UCP1
  UCP1 expression (total cell normalization) % Differentiated: 83.38 % Differentiated
Preadipocytes [2]
  Lipid accumulation % Differentiated: 30.59* % Differentiated

## CC(C)NCC(O)c1ccc(O)c(O)c1 (stereo not drawn) [Isoproterenol]
adipocytes
  Glycerol % Differentiated: 213.97** % Differentiated
  NEFA % Differentiated: 241.48** % Differentiated

## triton [Lysis control]
Preadipocytes [3]
  Mitochondrial Activity (viability) % Base control: 23.78** % Base control
Preadipocytes [4]
  Cytotoxicity % Base control (release of LDH): 1,252.05** % Base control

## C=C[C@@]1(C)CC(=O)[C@]2(O)[C@@]3(C)[C@@H](O)CCC(C)(C)[C@@H]3[C@H](O)[C@H](OC(C)=O)[C@@]2(C)O1 [Forskolin]
adipocytes
  Glycerol % Differentiated: 151.62** % Differentiated
  NEFA % Differentiated: 179.70** % Differentiated
